Data: ChEMBL document CHEMBL1201862, “PubChem BioAssay data set” (2004)
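Where inhibition never reached the appropriate level, the endpoint shown equals the highest concentration tested. Otherwise, values were interpolated linearly from a five-concentration, 48-hour dose response in 96-well plates. GI50 = concentration required for 50% inhibition of growth.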 The source made the active and inactive calls. No stated cut-off is given here; in the data, active = GI50 up to about 1.1 µM and inactive = higher.

Columns and labels:
Assay in all cases: growth of human tumour cells (NCI), 48 h
UO-31 = system: UO-31
786-0 = system: 786-0
UACC-62 = system: UACC-62
SF-295 = system: SF-295
SR = system: SR
SN12C = system: SN12C
HCT-116 = system: HCT-116
SF-268 = system: SF-268
SK-MEL-5 = system: SK-MEL-5
SK-MEL-2 = system: SK-MEL-2
HL-60 = system: HL-60
HT-29 = system: HT-29
Hs-578T = system: Hs-578T
MDA-N = system: MDA-N
NCI-H522 = system: NCI-H522
KM12 = system: KM12
HCT-15 = system: HCT-15
SF-539 = system: SF-539
SK-MEL-28 = system: SK-MEL-28
OVCAR-4 = system: OVCAR-4

Row | Structure (SMILES) | GI50 (UO-31) | GI50 (786-0) | GI50 (UACC-62) | GI50 (SF-295) | GI50 (SR) | GI50 (SN12C) | GI50 (HCT-116) | GI50 (SF-268) | GI50 (SK-MEL-5) | GI50 (SK-MEL-2) | GI50 (HL-60) | GI50 (HT-29) | GI50 (Hs-578T) | GI50 (MDA-N) | GI50 (NCI-H522) | GI50 (KM12) | GI50 (HCT-15) | GI50 (SF-539) | GI50 (SK-MEL-28) | GI50 (OVCAR-4)
1 | Cc1ncc([N+](=O)[O-])n1CCNC(=O)Cn1c([N+](=O)[O-])cnc1C | > 100 µM (inactive) | > 100 µM (inactive) | > 100 µM (inactive) | > 100 µM (inactive) | > 100 µM (inactive) | > 100 µM (inactive) | > 100 µM (inactive) | > 100 µM (inactive) | > 100 µM (inactive) | > 100 µM (inactive) | > 100 µM (inactive) | > 100 µM (inactive) | > 100 µM (inactive) | > 100 µM (inactive) | > 100 µM (inactive) | > 100 µM (inactive) | > 100 µM | > 100 µM (inactive) | > 100 µM (inactive) | –
2 | CC(C)(C)c1cc(Br)c(O)c(CN(Cc2cc(C(C)(C)C)cc(Br)c2O)C2CCCCC2)c1 | 14.4 µM (inactive) | 14.6 µM (inactive) | 12.7 µM (inactive) | 12.7 µM (inactive) | 10.1 µM (inactive) | 14.8 µM (inactive) | 12.5 µM (inactive) | 13.5 µM (inactive) | 10.9 µM (inactive) | 13.1 µM (inactive) | 17.6 µM (inactive) | 6.89 µM (inactive) | 13.1 µM (inactive) | 14.5 µM (inactive) | 12.6 µM (inactive) | 14.7 µM (inactive) | 12.8 µM | – | 15.5 µM (inactive) | 10.5 µM (inactive)
3 | NC(Cc1ccccc1)C(=O)NC(Cc1ccccc1)NC(=O)C(Cc1c[nH]c2ccccc12)C(=O)O (stereo unspecified) | 51.9 µM (inactive) | > 100 µM (inactive) | > 100 µM (inactive) | > 100 µM (inactive) | > 100 µM (inactive) | > 100 µM (inactive) | > 100 µM (inactive) | > 100 µM (inactive) | 12 µM (inactive) | 9.35 µM (inactive) | > 100 µM (inactive) | > 100 µM (inactive) | 37.7 µM (inactive) | > 100 µM (inactive) | > 100 µM (inactive) | > 100 µM (inactive) | > 100 µM | > 100 µM (inactive) | > 100 µM (inactive) | > 100 µM (inactive)
4 | CCN1CN(c2ccccc2)C2(CCN(CC3COc4ccccc4O3)CC2)C1=O (stereo unspecified) | 29 µM (inactive) | 47.9 µM (inactive) | 23.3 µM (inactive) | 39.9 µM (inactive) | 5.13 µM (inactive) | 41.5 µM (inactive) | 17.6 µM (inactive) | 42.5 µM (inactive) | 18.2 µM (inactive) | 13.2 µM (inactive) | 16.1 µM (inactive) | 20.1 µM (inactive) | 20.7 µM (inactive) | 2.28 µM (inactive) | 18 µM (inactive) | 17.5 µM (inactive) | 20.5 µM | 18.6 µM (inactive) | 32.5 µM (inactive) | –
5 | O=C1CN(c2ccccc2)C(=O)CN1NCNN1CC(=O)N(c2ccccc2)CC1=O | > 100 µM (inactive) | > 100 µM (inactive) | > 100 µM (inactive) | > 100 µM (inactive) | > 100 µM (inactive) | > 100 µM (inactive) | > 100 µM (inactive) | > 100 µM (inactive) | > 100 µM (inactive) | – | > 100 µM (inactive) | > 100 µM (inactive) | > 100 µM (inactive) | > 100 µM (inactive) | > 100 µM (inactive) | > 100 µM (inactive) | > 100 µM | > 100 µM (inactive) | > 100 µM (inactive) | > 100 µM (inactive)
6 | O=Cc1ccc2c(c1)CC1(Cc3ccccc3C1)C2 | 31.3 µM (inactive) | 14.2 µM (inactive) | 2.38 µM (inactive) | 31.3 µM (inactive) | 2.82 µM (inactive) | 18.1 µM (inactive) | > 100 µM (inactive) | – | 16 µM (inactive) | 11.2 µM (inactive) | 19.4 µM (inactive) | 23.4 µM (inactive) | 3.72 µM (inactive) | 18.7 µM (inactive) | 48.4 µM (inactive) | 55.8 µM (inactive) | 11.5 µM | 17.3 µM (inactive) | – | 17.6 µM (inactive)
7 | COc1cccc2c(=O)oc(-c3ccc(C(C)(C)C)cc3)nc12 | > 100 µM (inactive) | > 100 µM (inactive) | > 100 µM (inactive) | 69.7 µM (inactive) | 26.1 µM (inactive) | 96.8 µM (inactive) | 49.9 µM (inactive) | 84.9 µM (inactive) | 28.8 µM (inactive) | 44 µM (inactive) | 18.5 µM (inactive) | 41.7 µM (inactive) | 79.3 µM (inactive) | 76.7 µM (inactive) | 30.1 µM (inactive) | 32.4 µM (inactive) | 65.5 µM | > 100 µM (inactive) | > 100 µM (inactive) | 53.6 µM (inactive)
8 | CCCCCCCCCCCCCCCCCCOCC(CCP(=O)(CP(=O)(O)O)Oc1ccccc1)OCCCCCCCCCCCCCCCCCC (stereo unspecified) | – | > 100 µM (inactive) | > 100 µM (inactive) | > 100 µM (inactive) | > 100 µM (inactive) | > 100 µM (inactive) | > 100 µM (inactive) | > 100 µM (inactive) | > 100 µM (inactive) | – | > 100 µM (inactive) | > 100 µM (inactive) | > 100 µM (inactive) | > 100 µM (inactive) | > 100 µM (inactive) | > 100 µM (inactive) | > 100 µM | > 100 µM (inactive) | > 100 µM (inactive) | > 100 µM (inactive)
9 | Cc1ccc2c(c1)C1(C)OC(C=CC1=O)O2 (stereo unspecified) | 1.14 µM (inactive) | 0.261 µM (active) | 0.839 µM (active) | 2.79 µM (inactive) | 0.106 µM (active) | 0.308 µM (active) | 0.204 µM (active) | 1.41 µM (inactive) | 1.32 µM (inactive) | 1.77 µM (inactive) | 0.104 µM (active) | 0.267 µM (active) | 2.9 µM (inactive) | 0.18 µM (active) | 0.0769 µM (active) | 0.736 µM (active) | 0.265 µM | 0.488 µM (active) | 0.586 µM (active) | 0.774 µM (active)
10 | COC(=O)/C(C#N)=C(/NCCN)Nc1ccccc1 | > 100 µM (inactive) | > 100 µM (inactive) | – | > 100 µM (inactive) | > 100 µM (inactive) | > 100 µM (inactive) | > 100 µM (inactive) | > 100 µM (inactive) | > 100 µM (inactive) | > 100 µM (inactive) | > 100 µM (inactive) | > 100 µM (inactive) | > 100 µM (inactive) | > 100 µM (inactive) | > 100 µM (inactive) | – | > 100 µM | > 100 µM (inactive) | > 100 µM (inactive) | > 100 µM (inactive)
11 | Cc1ccc(NC(=O)c2cc(S(=O)(=O)Nc3n[nH]c(=O)n3-c3ccccc3)c(S)cc2Cl)cc1 | > 100 µM (inactive) | > 100 µM (inactive) | > 100 µM (inactive) | – | > 100 µM (inactive) | > 100 µM (inactive) | > 100 µM (inactive) | > 100 µM (inactive) | > 100 µM (inactive) | > 100 µM (inactive) | > 100 µM (inactive) | > 100 µM (inactive) | > 100 µM (inactive) | > 100 µM (inactive) | > 100 µM (inactive) | > 100 µM (inactive) | > 100 µM | > 100 µM (inactive) | > 100 µM (inactive) | > 100 µM (inactive)
12 | CCOC(=O)C(NC(=O)CC(C)C)(NC(C)C)C(F)(F)F (stereo unspecified) | > 100 µM (inactive) | > 100 µM (inactive) | – | > 100 µM (inactive) | > 100 µM (inactive) | > 100 µM (inactive) | > 100 µM (inactive) | > 100 µM (inactive) | > 100 µM (inactive) | > 100 µM (inactive) | > 100 µM (inactive) | > 100 µM (inactive) | > 100 µM (inactive) | > 100 µM (inactive) | > 100 µM (inactive) | > 100 µM (inactive) | > 100 µM | > 100 µM (inactive) | > 100 µM (inactive) | > 100 µM (inactive)
13 | Nc1nc(Cl)cc(NCC2(CO)CC(CCCc3ccccc3)C2)n1 (stereo unspecified) | 13.8 µM (inactive) | > 81.7 µM (inactive) | > 100 µM (inactive) | > 33.2 µM (inactive) | 1 µM (active) | > 36.6 µM (inactive) | – | > 100 µM (inactive) | 0.31 µM (active) | > 100 µM (inactive) | > 35.1 µM (inactive) | 25.4 µM (inactive) | > 64.4 µM (inactive) | > 100 µM (inactive) | > 68.7 µM (inactive) | > 100 µM (inactive) | > 100 µM | > 100 µM (inactive) | > 100 µM (inactive) | > 100 µM (inactive)
14 | O=C(OCCN1CCCCC1)C(c1ccccc1)C1(O)CCSCC1 (stereo unspecified) | > 100 µM (inactive) | > 100 µM (inactive) | > 100 µM (inactive) | > 100 µM (inactive) | > 100 µM (inactive) | > 100 µM (inactive) | > 100 µM (inactive) | > 100 µM (inactive) | > 100 µM (inactive) | > 100 µM (inactive) | > 100 µM (inactive) | > 100 µM (inactive) | > 100 µM (inactive) | > 100 µM (inactive) | > 100 µM (inactive) | > 100 µM (inactive) | > 100 µM | > 100 µM (inactive) | > 100 µM (inactive) | > 100 µM (inactive)
15 | COC(=O)n1c(=O)n(-c2ccccc2)c(=O)n1C(=O)OC | > 100 µM (inactive) | > 100 µM (inactive) | > 100 µM (inactive) | – | > 100 µM (inactive) | > 100 µM (inactive) | > 100 µM (inactive) | > 100 µM (inactive) | > 100 µM (inactive) | > 100 µM (inactive) | > 100 µM (inactive) | > 100 µM (inactive) | > 100 µM (inactive) | > 100 µM (inactive) | > 100 µM (inactive) | > 100 µM (inactive) | > 100 µM | > 100 µM (inactive) | > 100 µM (inactive) | > 100 µM (inactive)
